Assay: RC-101 solution / film control in water, detection by LC-MS/MS
Format: physicochemical
Settings: 1:1 with water, 37°C, nanoLC-SRM MS, qualitative
Method: RC-101 100 μg/mL solutions were prepared by dissolving RC-101 in Milli Q water. RC-101 and placebo films were prepared by precasting a polymeric film solution into an 8-well-plate. The polymeric film solution was prepared as previously described by adding Milli Q water, PVA, and hydroxypropyl methyl cellulose (HPMC). The solution was then heated at 95°C for 20 minutes for complete dissolution of the polymers. After cooling, glycerin and RC-101 were added. Film solution (2.4 g) containing RC-101 was poured into each well of the 8-well plate. The plate was placed into a vacuum oven at 30 ± 2°C for 20 ± 4 h. All dried films were removed from the plates and stored at room temperature in PET/Aluminum foil pouches (Amcor Flexibles Healthcare Inc, Mundelein, IL) until further analysis. Placebo films were prepared in the same way without the addition of RC-101. […] For analytical purposes, films were dissolved in 1 mL of Milli Q water before addition to HVF.
The HVF from the Instead Softcup® was removed by centrifugation of the conical tube for 10 min at 5,000 rpm. […] HVF was then removed from the cup and the pH of each HVF sample was measured with Fisher Alkacid pH filter strips (Fisher Scientific). All samples collected on a specific day were pooled to be used for the research studies. If the pH of the individual samples was higher than 5, the sample was not included in the pool but it was stored at -80°C for separate analysis. If the sample contained blood, it was immediately discarded. Samples were prepared as described in Table 1. […] Because of its high viscosity, HVF was measured by weight and not by volume. All solutions were prepared fresh and incubated with HVF (or water) at 37°C for specific periods of time (0, 2, 6, 12, 24, 48, and 72 h), unless specified otherwise. At each time point, the samples were centrifuged at 10,000 rpm for 10 min to separate the supernatant from the epithelial cells as described in the cell processing section. Both parts (supernatant and cells) were stored at -80 ± C until analyzed by LC-MS/MS. To evaluate the influence of freezing the fluid prior to the analysis, the last pool of HVF was divided into two samples: one used fresh (at the time of collection), and the other one stored at -80°C for a 3-month period. After that time period, HVF was thawed and processed for blank and RC-101 solution only, as described in Table 1. HVF samples collected with a high pH value indicative of BV were stored at -80°C as previously mentioned. After confirmation of BV on those fluid samples by Gram stain score, the fluid samples (HVF BV^+) were thawed, pooled, and processed as described in Table 1.
At each time point, the sample was removed from the incubation chamber and centrifuged for 10 min at 10,000 rpm, at 4 ± C to separate the supernatant from cell pellet. Supernatant (100 μL) was added to microcentrifuge filters Ultracel YM-10 Microcon MWCO 10,000 (Millipore Corporation, Bedford, MA), which were pre-washed with Milli Q water to eliminate any trace of propylene glycol from the filters. Samples were centrifuged twice for 15 min at 8,500 rpm, at 4 ± C. The filtrate was collected and frozen at -80 ± C until further analysis. A solution of 3 M urea was added to the cell pellet (1:1 w/w) obtained from the first centrifugation, to lyse the cells. This mixture was vortexed three times for 30 sec, and then centrifuged for 10 min at 10,000 rpm, at 4 ± C. The supernatant obtained from the cell lysate was then added to microcentrifuge filters Ultracel YM-10 Microcon MWCO 10,000 pre-washed with Milli Q water. Samples were centrifuged twice for 15 min at 8,500 rpm, at 4 ± C. The filtrate was collected and frozen at -80 ± C until analysis.

Measured: detection of RC-101 by LC-MS/MS

GICRCICGKGICRCICGR (bicyclic or more) [RC-101, cationic retrocyclin analog; circular 18-residue tetracyclic peptide with three cysteine disulfide bonds]
+: 0 h | 2 h | 6 h | 12 h | 24 h | 48 h | 72 h
